The target in series [1] is T1, FGFR2 (Homo sapiens, UniProt P21802).
T1 construct: purchased Invitrogen PV3368
The series is described as follows: 33P isotope-labeled kinase activity test (Reaction Biology Corp), wild-type FGFR2. The series is classed as biochemical. The note with it: for Selectivity FGFR1/2: ratio of IC50 FGFR1 to IC50 FGFR2; for IC50: wild-type kinase, 33P-ATP 5 μM, substrate pEY + Mn, 120 minutes at room temperature.

Series [2] addresses T2, human FGFR4 (Homo sapiens, UniProt P22455).
T2 construct: purchased Invitrogen P3054
The series is described as follows: 33P isotope-labeled kinase activity test (Reaction Biology Corp), wild-type FGFR4. The series is classed as biochemical. The following applies: 33P-ATP 2.5 μM, substrate pEY + Mn, 120 minutes at room temperature. As for the experimental part: (§1) The IC50 value is determined using ^33P isotope-labeled kinase activity test (Reaction Biology Corp) to evaluate the inhibitory ability of the compounds to be tested on human FGFR1 and FGFR4.
(§2) Buffer conditions: 20 mM 4-(2-hydroxyethyl)-1-piperazineethanesulfonic acid (Hepes) (pH 7.5), 10 mM MgCl2, 1 mM ethylene glycol-bis-(2-aminoethyl ether)tetraacetic acid (EGTA), 0.02% polyoxyethylene lauryl ether (Brij35), 0.02 mg/ml bovine serum albumin (BSA), 0.1 mM sodium vanadate (Na3VO4), 2 mM dithiothreitol (DTT), and 1% DMSO.
(§3) Test steps: At room temperature, the compounds to be tested are dissolved in DMSO to prepare a 10 mM solution for use. The substrate is dissolved in the newly prepared buffer, and the kinase to be tested is added and mixed well. The DMSO solution in which the compounds to be tested are dissolved is added to the above-mentioned homogeneous reaction solution using acoustic technology (Echo 550). […] After incubating for 15 minutes, ^33P-ATP (activity: 0.01 μCi/μl, with corresponding concentration being listed in table 1) is added to start the reaction. The supplier article number, batch number, and the concentration information in the reaction solution of FGFR1, FGFR4 and substrates thereof are listed in table 1. After the reaction is carried out at room temperature for 120 minutes, the reaction solution is spotted on P81 ion exchange filter paper (Whatman #3698-915). After the filter paper is repeatedly washed with 0.75% phosphoric acid solution, the radioactivity of the phosphorylated substrate remaining on the filter paper is measured. The kinase activity data is expressed by comparing the kinase activity of the groups containing the compounds to be tested with that of the blank group (containing only DMSO). The IC50 value is obtained by curve fitting using Prism4 software (GraphPad), and the experimental results are shown in table 2.

Series [3] deals with T3, FGFR3 (Homo sapiens, UniProt P22607).
T3 construct: purchased Invitrogen PV3145
T3 sequence (P22607 23-806): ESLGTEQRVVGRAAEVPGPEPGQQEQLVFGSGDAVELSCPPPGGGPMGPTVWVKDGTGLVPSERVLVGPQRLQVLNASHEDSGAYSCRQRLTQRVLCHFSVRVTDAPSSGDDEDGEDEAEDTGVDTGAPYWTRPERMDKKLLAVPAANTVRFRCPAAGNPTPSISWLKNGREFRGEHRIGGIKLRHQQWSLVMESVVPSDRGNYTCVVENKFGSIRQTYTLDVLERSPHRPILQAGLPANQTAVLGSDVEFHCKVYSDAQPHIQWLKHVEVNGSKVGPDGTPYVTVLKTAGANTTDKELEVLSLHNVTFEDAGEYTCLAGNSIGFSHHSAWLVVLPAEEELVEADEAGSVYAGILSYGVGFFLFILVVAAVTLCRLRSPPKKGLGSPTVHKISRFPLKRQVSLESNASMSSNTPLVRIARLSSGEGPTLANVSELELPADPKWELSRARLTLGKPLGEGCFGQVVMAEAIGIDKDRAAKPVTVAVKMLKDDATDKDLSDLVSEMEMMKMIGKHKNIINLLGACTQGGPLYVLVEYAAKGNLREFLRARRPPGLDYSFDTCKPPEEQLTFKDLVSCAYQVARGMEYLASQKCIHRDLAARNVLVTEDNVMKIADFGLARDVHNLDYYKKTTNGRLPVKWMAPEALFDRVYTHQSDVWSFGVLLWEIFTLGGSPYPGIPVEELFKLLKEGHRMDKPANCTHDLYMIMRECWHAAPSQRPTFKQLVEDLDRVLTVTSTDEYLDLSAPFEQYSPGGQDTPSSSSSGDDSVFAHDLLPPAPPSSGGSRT
The series is described as follows: 33P isotope-labeled kinase activity test (Reaction Biology Corp), wild-type FGFR3. It is filed as biochemical. The following applies: for Selectivity FGFR1/3: ratio of IC50 FGFR1 to IC50 FGFR3; for IC50: wild-type kinase, 33P-ATP 30 μM, substrate pEY + Mn, 120 minutes at room temperature.

Series [4] concerns the target T4, human FGFR1 (Homo sapiens, UniProt P11362).
T4 construct: purchased Invitrogen PV3146
In words: 33P isotope-labeled kinase activity test (Reaction Biology Corp), wild-type FGFR1. The following applies: 33P-ATP 5 μM, substrate pEY + Mn, 120 minutes at room temperature. It is filed as biochemical. As to the method: as §1, §2
as §3, with “After the reaction is carried out at room temperature for 120 minutes, the reaction solution is spotted on P81 ion exchange filter paper (Whatman #3698-915). After the filter paper is repeatedly washed with 0.75% phosphoric acid solution, the radioactivity of the phosphorylated substrate remaining on the filter paper is measured.” left out

Series [5] is described as follows: Pharmacokinetic evaluation of compounds in mice. It is filed as in vivo. The following applies: CD-1 mouse (male), single gavage, plasma; for MRT last: read-out: MRT0-last. As for the experimental part:
Experimental purpose: testing pharmacokinetics of the compounds in mice
CD-1 mouse (male), vehicle (an aqueous solution of 0.5% (w/v) methylcellulose and 0.5% (v/v) Tween 80), and trfluoroacetate salt of compound 0027.
The animals in groups 1 and 2 are administrated […] of the compounds by single gavage, respectively, and the administration volume is 10 mL/kg.
Whole blood samples (30 μl) are collected at the prescribed time points (0.25, 0.5, 1, 2, 4, 6, 8, 24 h) by saphenous vein blood collection, and the actual blood collection time is recorded in the test record. The acceptable error of the collection time point is a time point within 1 hour of administration time ±1 minute, and the acceptable error of other time points is a theoretical time ±5%.
All blood samples are immediately transferred to labeled commercial centrifuge tubes containing K2-EDTA. After being collected, the blood samples are centrifuged at 3200 rpm/min for 10 minutes at 4° C. to aspirate the supernatant plasma, which is quickly placed in dry ice, and kept at −20° C. or a lower temperature for LC-MS/MS analysis.

Molecules are shown by their SMILES. Counter-ions that a name gives are not always drawn. Like-named read-outs stand apart in the source and are kept apart here.

T4 sequence (P11362 22-822): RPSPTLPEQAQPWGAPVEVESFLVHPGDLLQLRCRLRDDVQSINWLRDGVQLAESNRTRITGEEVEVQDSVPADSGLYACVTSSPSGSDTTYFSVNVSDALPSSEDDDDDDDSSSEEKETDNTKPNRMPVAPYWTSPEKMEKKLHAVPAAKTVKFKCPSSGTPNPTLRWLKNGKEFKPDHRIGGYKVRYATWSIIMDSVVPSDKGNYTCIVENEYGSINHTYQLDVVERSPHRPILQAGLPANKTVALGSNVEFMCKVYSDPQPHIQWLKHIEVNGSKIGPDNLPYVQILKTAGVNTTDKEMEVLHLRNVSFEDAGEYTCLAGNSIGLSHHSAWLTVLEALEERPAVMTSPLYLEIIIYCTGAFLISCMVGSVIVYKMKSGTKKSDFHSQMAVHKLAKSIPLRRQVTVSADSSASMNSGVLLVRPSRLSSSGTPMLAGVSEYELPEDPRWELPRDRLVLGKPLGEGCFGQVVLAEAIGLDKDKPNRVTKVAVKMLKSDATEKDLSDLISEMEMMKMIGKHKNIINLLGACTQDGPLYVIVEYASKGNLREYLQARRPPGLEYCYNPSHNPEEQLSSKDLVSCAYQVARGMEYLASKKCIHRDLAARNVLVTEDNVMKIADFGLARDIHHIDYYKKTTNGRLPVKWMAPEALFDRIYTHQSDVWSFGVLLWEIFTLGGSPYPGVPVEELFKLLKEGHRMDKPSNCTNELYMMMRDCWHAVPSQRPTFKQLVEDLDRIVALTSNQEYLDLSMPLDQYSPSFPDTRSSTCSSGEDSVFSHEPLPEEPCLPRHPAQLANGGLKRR
T2 sequence (P22455 22-802): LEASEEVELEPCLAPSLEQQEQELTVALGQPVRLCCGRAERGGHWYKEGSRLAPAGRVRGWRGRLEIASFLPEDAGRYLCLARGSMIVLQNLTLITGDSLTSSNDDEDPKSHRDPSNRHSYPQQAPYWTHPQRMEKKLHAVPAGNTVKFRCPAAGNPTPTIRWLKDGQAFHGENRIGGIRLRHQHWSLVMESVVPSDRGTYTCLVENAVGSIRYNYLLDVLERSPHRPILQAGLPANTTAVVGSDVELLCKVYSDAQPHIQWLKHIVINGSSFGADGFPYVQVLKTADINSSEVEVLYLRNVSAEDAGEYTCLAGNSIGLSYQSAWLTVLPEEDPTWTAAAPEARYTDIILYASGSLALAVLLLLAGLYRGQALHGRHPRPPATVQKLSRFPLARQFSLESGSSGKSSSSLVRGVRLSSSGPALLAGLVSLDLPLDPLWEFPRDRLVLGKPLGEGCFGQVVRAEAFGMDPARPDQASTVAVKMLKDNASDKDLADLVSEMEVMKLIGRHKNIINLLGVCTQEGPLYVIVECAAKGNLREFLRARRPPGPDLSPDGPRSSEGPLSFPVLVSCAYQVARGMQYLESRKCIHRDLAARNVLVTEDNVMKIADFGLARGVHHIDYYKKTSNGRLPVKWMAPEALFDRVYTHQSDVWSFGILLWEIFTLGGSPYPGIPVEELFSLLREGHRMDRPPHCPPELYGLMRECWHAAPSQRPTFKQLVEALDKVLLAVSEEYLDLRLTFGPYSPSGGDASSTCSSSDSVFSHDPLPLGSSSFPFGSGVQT
T1 sequence (P21802 22-821): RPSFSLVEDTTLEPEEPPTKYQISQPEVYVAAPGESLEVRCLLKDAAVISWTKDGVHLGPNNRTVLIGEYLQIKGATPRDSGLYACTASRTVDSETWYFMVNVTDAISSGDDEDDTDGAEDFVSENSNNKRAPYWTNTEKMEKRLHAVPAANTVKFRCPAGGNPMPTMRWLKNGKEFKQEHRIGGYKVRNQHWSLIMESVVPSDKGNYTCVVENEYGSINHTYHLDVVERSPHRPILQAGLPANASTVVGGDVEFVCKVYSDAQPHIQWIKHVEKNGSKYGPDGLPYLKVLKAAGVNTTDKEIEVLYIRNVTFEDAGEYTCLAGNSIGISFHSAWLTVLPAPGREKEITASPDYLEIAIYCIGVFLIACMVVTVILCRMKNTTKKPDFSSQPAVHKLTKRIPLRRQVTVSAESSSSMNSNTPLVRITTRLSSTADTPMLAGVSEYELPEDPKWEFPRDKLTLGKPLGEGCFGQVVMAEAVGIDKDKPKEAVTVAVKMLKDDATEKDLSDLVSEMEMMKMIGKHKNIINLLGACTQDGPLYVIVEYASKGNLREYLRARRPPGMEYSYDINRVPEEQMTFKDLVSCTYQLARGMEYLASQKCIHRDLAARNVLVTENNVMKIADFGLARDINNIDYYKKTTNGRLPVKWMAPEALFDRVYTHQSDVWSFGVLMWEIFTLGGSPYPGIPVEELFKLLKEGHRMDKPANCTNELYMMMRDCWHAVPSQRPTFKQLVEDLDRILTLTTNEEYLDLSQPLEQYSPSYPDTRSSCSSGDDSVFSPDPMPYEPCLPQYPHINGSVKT

Turning to `COc1cc(OC)cc(-c2nc(-c3nc(-c4ccc(C5CCN(C)CC5)nc4)cnc3N)cn(C)c2=O)c1` [Hydrochloride salt of 0036], in series [1], the “Selectivity FGFR1/2” value is recorded as 5.31. The IC50 (commonly the concentration at which inhibition is half-maximal) in series [1] was 2.48 nM; in series [2], greater than 10000 nM; in series [3], 1.81 nM; in series [4], 13.2 nM. Besides, the “Selectivity FGFR1/3” value in series [3] came out at 7.28.

For the compound `COc1cc(OC)cc(-c2nc(-c3nc(-c4cn(C5CCN(C)CC5)nc4C)cnc3N)cn(C)c2=O)c1` [Trifluoroacetate salt of 0016], in series [1], the “Selectivity FGFR1/2” value was found to be 6.94. In addition, the IC50 is 4.21 nM in series [1], 8640 nM in series [2], 4.93 nM in series [3] and 29.2 nM in series [4]. For the same compound, the “Selectivity FGFR1/3” value in series [3] is given as 5.92.

`COc1cc(OC)c(Cl)c(-c2nc(-c3nc(-c4cn(C)nc4C)cnc3N)cn(C)c2=O)c1` [Trifluoroacetate salt of 0027] yielded a Tlast in series [5] (300 mpk) of 24.0 h. Further, in series [5] (po, 50 mg/kg, 50 mpk), the area under the curve AUC(0-inf) – broadly, the area under the concentration-time curve extrapolated to infinity – was 95.8 µM·h; the AUC(0-t) (in general, exposure summed from dosing to a finite time, without extrapolation to infinity) was determined as 85.8 µM·h; the Cmax (commonly the maximum level reached in the sampled fluid or tissue) is 14.8 µM; the Tmax (in general, the time from dosing to the highest level) was determined as 1 h. In series [5] (po, 50 mg/kg, 50 mpk), the half-life (commonly the time needed for the level to fall by half in the phase considered) was 2.46 h and the MRT last worked out at 4.33 h. Further, the MRT inf in series [5] (po, 50 mg/kg, 50 mpk, read-out: MRT0-inf) is 5.39 h. In addition, in series [5] (po, 300 mg/kg, 300 mpk), the AUC(0-t) stood at 699 µM·h, the Cmax worked out at 42.1 µM, the time of peak concentration (Tmax) was 7 h and the MRT last amounted to 11.1 h. In series [1], the “Selectivity FGFR1/2” value was 4.02 and the IC50 worked out at 0.53 nM. Further, the IC50 in series [2] is 106 nM. Further, in series [3], the “Selectivity FGFR1/3” value turned out to be 3.06 and the IC50 came out at 0.69 nM. In series [4], the half-inhibitory concentration (IC50) was found to be 2.12 nM.

Source of the values: patent US11286248B2, “Pyrazine-2(1H)-ketone compound acting as FGFR inhibitor” (ZHANGZHOU PIEN TZE HUANG PHARMACEUTICAL CO., LTD., priority 2018, dated 2022).
